From publication PMC11198769, “Enhancement of transcription efficiency by TAR-Tat system increases the functional expression of human olfactory receptors” (PLOS ONE, 2024)
Read-outs that look alike come from different tables or passages of the source.

Legend:
Assay in all cases: hOR assay (GloSensor cAMP luciferase), dose-response
Format in all cases: cell-based
[1] = molecular target: T1, OR10C1 (Homo sapiens, UniProt Q96KK4); conditions: OR10C1, with or without the TAR-Tat system
T1 construct: Lucy tag (N); expressed in transfected cells; host or cells: Flp-In T-REx-293 cells stably expressing RTP1S, Gαolf and Ric8-b
T1 sequence (Q96KK4 1-312): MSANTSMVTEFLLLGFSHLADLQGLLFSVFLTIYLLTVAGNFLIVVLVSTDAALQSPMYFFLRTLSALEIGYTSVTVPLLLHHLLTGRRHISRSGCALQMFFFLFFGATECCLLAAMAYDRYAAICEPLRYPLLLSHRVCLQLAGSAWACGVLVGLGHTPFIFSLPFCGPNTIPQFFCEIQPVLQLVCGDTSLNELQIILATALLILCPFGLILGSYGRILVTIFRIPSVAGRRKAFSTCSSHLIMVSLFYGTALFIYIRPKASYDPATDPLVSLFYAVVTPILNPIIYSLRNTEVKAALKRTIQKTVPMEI

[2] = molecular target: T2, OR10H3 (Homo sapiens, UniProt O60404); conditions: OR10H3, with or without the TAR-Tat system
T2 construct: Lucy tag (N); expressed in transfected cells; host or cells: Flp-In T-REx-293 cells stably expressing RTP1S, Gαolf and Ric8-b
T2 sequence (O60404 1-316): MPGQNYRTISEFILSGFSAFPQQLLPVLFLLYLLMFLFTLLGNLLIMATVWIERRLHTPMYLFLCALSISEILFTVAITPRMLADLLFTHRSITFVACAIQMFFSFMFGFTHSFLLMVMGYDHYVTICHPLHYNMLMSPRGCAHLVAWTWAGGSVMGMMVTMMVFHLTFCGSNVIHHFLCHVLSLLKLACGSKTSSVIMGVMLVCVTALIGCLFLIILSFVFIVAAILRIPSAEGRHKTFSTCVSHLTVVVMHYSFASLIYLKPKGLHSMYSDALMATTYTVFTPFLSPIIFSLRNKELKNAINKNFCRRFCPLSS

[3] = molecular target: T3, OR1A1 (Homo sapiens, UniProt Q9P1Q5)
T3 construct: Lucy tag (N); FLAG (N); Rho tag (N); expressed in transfected cells; host or cells: Flp-In T-REx-293 cells stably expressing RTP1S, Gαolf and Ric8-b
T3 sequence (Q9P1Q5 1-309): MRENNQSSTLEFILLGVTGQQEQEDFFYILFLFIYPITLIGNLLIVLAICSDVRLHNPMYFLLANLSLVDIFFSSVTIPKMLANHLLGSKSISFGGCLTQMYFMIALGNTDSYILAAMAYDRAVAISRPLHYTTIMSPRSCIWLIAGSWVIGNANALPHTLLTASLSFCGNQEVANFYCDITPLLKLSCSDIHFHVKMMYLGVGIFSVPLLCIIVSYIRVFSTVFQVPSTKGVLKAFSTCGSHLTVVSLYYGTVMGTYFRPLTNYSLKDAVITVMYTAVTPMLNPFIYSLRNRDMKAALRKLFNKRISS

[4] = molecular target: T4, OR2J3 (Homo sapiens, UniProt O76001); conditions: OR2J3, with and without the TAR-Tat system
T4 construct: Lucy tag (N); FLAG (N); Rho tag (N); expressed in transfected cells; host or cells: Flp-In T-REx-293 cells stably expressing RTP1S, Gαolf and Ric8-b
T4 sequence (O76001 1-311): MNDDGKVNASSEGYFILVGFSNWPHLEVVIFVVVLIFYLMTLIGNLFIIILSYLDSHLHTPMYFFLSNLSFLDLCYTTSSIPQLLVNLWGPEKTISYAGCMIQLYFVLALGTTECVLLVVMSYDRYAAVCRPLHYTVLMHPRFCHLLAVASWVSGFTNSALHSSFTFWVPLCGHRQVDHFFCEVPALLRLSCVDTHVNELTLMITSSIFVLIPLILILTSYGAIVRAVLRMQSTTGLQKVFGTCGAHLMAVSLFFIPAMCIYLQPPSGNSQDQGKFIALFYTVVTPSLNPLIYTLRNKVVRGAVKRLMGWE

[5] = molecular target: T5, OR2W1 (Homo sapiens, UniProt Q9Y3N9); conditions: for EC50: read-out: EC50 of n-hexanal concentration-response relationship
T5 construct: Lucy tag (N); FLAG (N); Rho tag (N); expressed in transfected cells; host or cells: Flp-In T-REx-293 cells stably expressing RTP1S, Gαolf and Ric8-b
T5 sequence (Q9Y3N9 1-320): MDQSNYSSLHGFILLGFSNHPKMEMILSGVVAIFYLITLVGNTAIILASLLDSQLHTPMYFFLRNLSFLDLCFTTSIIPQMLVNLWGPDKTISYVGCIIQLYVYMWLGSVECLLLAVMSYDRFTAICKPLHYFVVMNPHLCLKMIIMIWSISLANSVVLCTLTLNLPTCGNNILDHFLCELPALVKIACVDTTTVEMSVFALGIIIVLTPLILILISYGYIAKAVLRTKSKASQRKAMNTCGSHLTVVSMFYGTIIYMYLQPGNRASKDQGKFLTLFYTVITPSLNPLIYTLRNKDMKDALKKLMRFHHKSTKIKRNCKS

Structure (SMILES): CCCCCC=O [n-hexanal]
- concentration-dependent response to n-hexanal [1]: no concentration-dependent response
- concentration-dependent response to n-hexanal [2]: no concentration-dependent response
- concentration-dependent response to n-hexanal ([3]; OR1A1, with and without the TAR-Tat system): concentration-dependent responses only with the TAR-Tat system
- EC50 ([3]; OR1A1/pHEK (with TAR-Tat system), read-out: EC50 of n-hexanal concentration-response relationship): 995 µM
- concentration-dependent response to n-hexanal [4]: concentration-dependent responses only with the TAR-Tat system
- concentration-dependent response to n-hexanal ([5]; OR2W1, with and without the TAR-Tat system): Concentration-dependent responses were observed
- EC50 ([5]; OR2W1/pBApo (without TAR-Tat system)): 21 µM
- EC50 ([5]; OR2W1/pHEK (with TAR-Tat system)): 60 µM
- increase of maximum value of dose-response curve with the TAR-Tat system ([5]; OR2W1/pHEK versus OR2W1/pBApo): 2.0 fold
